The values that follow come from PubChem BioAssay AID248 (DTP/NCI, 2004).

This assay concerns L1210 leukemia ip in BDF1 mice, survival T/C. As to the kind of experiment: NCI In Vivo Anticancer Drug Screen. Data for tumor model L1210 Leukemia (intraperitoneal) in B6D2F1 (BDF1) mice. The settings on record: endpoint: mean survival time, higher = longer survival. In a few lines:
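Transplanted-tumor mice were given test agent; controls received vehicle only. Survival readings from the two groups were divided (treated over control).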

Where [1] appears, read: dose: 100.0 mg/kg/injection, schedule: Q01DX009 (ip), vehicle: Klucel (hydroxypropylcellulose) (HPC).
Setting [2] is: dose: 100.0 mg/kg/injection, schedule: Q04DX003 (ip), vehicle: Klucel (hydroxypropylcellulose) (HPC).
Where [3] appears, read: dose: 200.0 mg/kg/injection, schedule: Q04DX003 (ip), vehicle: Klucel (hydroxypropylcellulose) (HPC).
The mark [4] stands for this setting: dose: 100.0 mg/kg/injection, schedule: Q01DX009 (ip), vehicle: saline with Tween-80.
The mark [5] stands for this setting: dose: 200.0 mg/kg/injection, schedule: Q01DX009 (ip), vehicle: saline with Tween-80.
Setting [6] is: dose: 400.0 mg/kg/injection, schedule: Q01DX009 (ip), vehicle: saline with Tween-80.
The mark [7] stands for this setting: dose: 400.0 mg/kg/injection, schedule: Q04DX003 (ip), vehicle: Klucel (hydroxypropylcellulose) (HPC).
The mark [8] stands for this setting: dose: 100.0 mg/kg/injection, schedule: Q01DX001 (ip), vehicle: Klucel (hydroxypropylcellulose) (HPC).

Molecules are shown by their SMILES. “And” between values parts separate entries of the source, which are not always exact repeats. Identical values can stand only once. Inconclusive results and toxic doses are left out.

Consider `O=P(N1CCOCC1)(N1CC1)N1CC1`, for which the T/C was 103 % of control (dose: 2.3 mg/kg/injection, schedule: Q01DX015 (ip), vehicle: saline); 108 % of control (dose: 3.5 mg/kg/injection, schedule: Q01DX015 (ip), vehicle: saline); 114 % of control (dose: 5.3 mg/kg/injection, schedule: Q01DX015 (ip), vehicle: saline); 105 % of control (dose: 6.2 mg/kg/injection, schedule: Q01DX001 (ip), vehicle: saline); 107 % of control (dose: 9.3 mg/kg/injection, schedule: Q01DX001 (ip), vehicle: saline); 196 % of control (dose: 12.5 mg/kg/injection, schedule: Q01DX009 (ip), vehicle: saline). Besides, the T/C is 112 % of control (dose: 14.0 mg/kg/injection, schedule: Q01DX001 (ip), vehicle: saline); 210 % of control (dose: 14.0 mg/kg/injection, schedule: Q01DX015 (ip), vehicle: saline); 246 % of control (dose: 23.0 mg/kg/injection, schedule: Q01DX015 (ip), vehicle: saline); 116 % of control (dose: 25.0 mg/kg/injection, schedule: Q01DX009 (ip), vehicle: saline); 157 % of control (dose: 33.0 mg/kg/injection, schedule: Q01DX001 (ip), vehicle: saline); 104 % of control (dose: 38.0 mg/kg/injection, schedule: Q01DX015 (ip), vehicle: saline).
On to `NC(N)=N/N=C\c1ccc(/C=N/N=C(N)N)cc1`, for which the T/C is 103 % of control (dose: 60.0 mg/kg/injection, schedule: Q01DX Z (oral), vehicle: saline); 108 % of control (dose: 120.0 mg/kg/injection, schedule: Q01DX Z (oral), vehicle: saline); 101 % of control (dose: 240.0 mg/kg/injection, schedule: Q01DX Z (oral), vehicle: saline); 108 % of control (dose: 480.0 mg/kg/injection, schedule: Q01DX Z (oral), vehicle: saline).
Consider `CCCCOB(OCCCC)c1ccc(SC)cc1`, for which the T/C is 111 % of control (dose: 100.0 mg/kg/injection, schedule: Q04DX003 (ip), vehicle: alcohol); 103 % of control (dose: 200.0 mg/kg/injection, schedule: Q04DX003 (ip), vehicle: alcohol); 118 % of control (dose: 400.0 mg/kg/injection, schedule: Q04DX003 (ip), vehicle: alcohol).
Turning to `COC1=CC=C2C3Cc4ccc(OC)c(O)c4C2(C1)CN3C` (centres undefined), the T/C (dose: 100.0 mg/kg/injection, schedule: Q04DX003 (ip), vehicle: other) is 96 % of control.
Take `O=C(O)c1ccc[cH-]1.O=C(O)c1ccc[cH-]1.[Fe+2]`: the T/C reads like this: (dose: 100.0 mg/kg/injection, schedule: Q04DX002 (ip), vehicle: Klucel (hydroxypropylcellulose) (HPC)) 110 % of control; (dose: 200.0 mg/kg/injection, schedule: Q04DX002 (ip), vehicle: Klucel (hydroxypropylcellulose) (HPC)) 100 % of control; (dose: 400.0 mg/kg/injection, schedule: Q04DX002 (ip), vehicle: Klucel (hydroxypropylcellulose) (HPC)) 103 % of control.
Take `CSc1ncnc2c1ncn2CO`: the T/C runs as follows: (dose: 30.0 mg/kg/injection, schedule: Q01DX009 (ip), vehicle: Klucel (hydroxypropylcellulose) (HPC)) 113 % of control; (dose: 46.0 mg/kg/injection, schedule: Q01DX009 (ip), vehicle: carboxymethylcellulose (CMC)) 122 % of control; (dose: 55.0 mg/kg/injection, schedule: Q01DX009 (ip), vehicle: saline) 119 % of control; (dose: 60.0 mg/kg/injection, schedule: Q01DX009 (ip), vehicle: Klucel (hydroxypropylcellulose) (HPC)) 116 % of control; (dose: 110.0 mg/kg/injection, schedule: Q01DX001 (ip), vehicle: saline) 115 % of control; (dose: 120.0 mg/kg/injection, schedule: Q01DX009 (ip), vehicle: Klucel (hydroxypropylcellulose) (HPC)) 109 % of control. Further, the T/C is 164 % of control (dose: 125.0 mg/kg/injection, schedule: Q01DX009 (ip), vehicle: saline); 120 % of control (dose: 165.0 mg/kg/injection, schedule: Q01DX001 (ip), vehicle: saline); 120 % of control (dose: 250.0 mg/kg/injection, schedule: Q01DX001 (ip), vehicle: saline).
Take `FC1(F)C=C(c2ccccc2)C1(Cl)Cl`: the T/C reads like this: (dose: 25.0 mg/kg/injection, schedule: Q01DX009 (ip), vehicle: Klucel (hydroxypropylcellulose) (HPC)) 102 % of control; (dose: 50.0 mg/kg/injection, schedule: Q01DX009 (ip), vehicle: Klucel (hydroxypropylcellulose) (HPC)) 100 % of control; under setting [1], 92 % of control and 98 % of control; under setting [2], 107 % of control; under setting [3], 113 % of control.
Consider `COc1ccc2nc3ccccc3c(N)c2c1`, for which the T/C (dose: 5.0 mg/kg/injection, schedule: Q01DX001 (ip), vehicle: saline) is 100 % of control; the T/C (dose: 10.0 mg/kg/injection, schedule: Q01DX001 (ip), vehicle: saline) is 100 % of control; the T/C (dose: 20.0 mg/kg/injection, schedule: Q01DX001 (ip), vehicle: saline) was 97 % of control; the T/C (dose: 40.0 mg/kg/injection, schedule: Q01DX001 (ip), vehicle: saline) was 90 % of control.
For the compound `C(/C=C/c1ccccc1)=Nc1ccc(CCc2ccc(N=C/C=C/c3ccccc3)cc2)cc1`, the T/C by setting is: (dose: 100.0 mg/kg/injection, schedule: Q04DX003 (ip), vehicle: saline with Tween-80) 91 % of control; (dose: 200.0 mg/kg/injection, schedule: Q04DX003 (ip), vehicle: saline with Tween-80) 92 % of control; (dose: 400.0 mg/kg/injection, schedule: Q04DX003 (ip), vehicle: saline with Tween-80) 92 % of control.
Consider `CC(=O)OC1CCC2(C)C(=CCC3C2CCC2(C)C(/C(C)=N/O)=CCC32)C1` (centres undefined), for which the T/C under setting [4] is 96 % of control, the T/C under setting [5] is 100 % of control and the T/C under setting [6] is 91 % of control.
As to `O=C(O)C(Cc1ccsc1)C(=O)O`, the T/C was 101 % of control (dose: 100.0 mg/kg/injection, schedule: Q01DX001 (ip), vehicle: saline) and 93 % of control (dose: 200.0 mg/kg/injection, schedule: Q01DX001 (ip), vehicle: saline).
As for `CCOC(=O)CCc1c(C(=O)OCC)[nH]c(C)c1CC(=O)OC`, the T/C runs as follows: under setting [2], 98 % of control; under setting [3], 101 % of control; under setting [7], 101 % of control.
With `O=C(O)c1cc(-c2ccccc2)cc(Br)c1O`, the T/C is, setting by setting: (dose: 100.0 mg/kg/injection, schedule: Q01DX001 (ip), vehicle: carboxymethylcellulose (CMC)) 93 % of control; (dose: 200.0 mg/kg/injection, schedule: Q01DX001 (ip), vehicle: carboxymethylcellulose (CMC)) 95 % of control.
For `Cc1ccc(-n2c(=O)c(N=Nc3ccc(Cl)cc3)c(O)n(-c3ccccc3Cl)c2=S)cc1`, the T/C is, setting by setting: (dose: 25.0 mg/kg/injection, schedule: Q01DX001 (ip), vehicle: Klucel (hydroxypropylcellulose) (HPC)) 97 % of control; (dose: 50.0 mg/kg/injection, schedule: Q01DX001 (ip), vehicle: Klucel (hydroxypropylcellulose) (HPC)) 101 % of control; under setting [8], 92 % of control.
Consider `Oc1ccccc1C=NCCN=Cc1ccccc1O`, for which the T/C is, setting by setting: under setting [4], 90 % of control; under setting [5], 92 % of control; under setting [6], 92 % of control.
In the case of `O=C1C=CC(=O)N1c1ccc(Cl)cc1`, the T/C (dose: 10.0 mg/kg/injection, schedule: Q01DX009 (ip), vehicle: Klucel (hydroxypropylcellulose) (HPC)) is 100 % of control; the T/C (dose: 10.0 mg/kg/injection, schedule: Q04DX003 (ip), vehicle: other) is 97 % of control; the T/C (dose: 20.0 mg/kg/injection, schedule: Q01DX009 (ip), vehicle: Klucel (hydroxypropylcellulose) (HPC)) is 88 % of control; the T/C (dose: 20.0 mg/kg/injection, schedule: Q04DX003 (ip), vehicle: other) was 95 % of control; the T/C (dose: 40.0 mg/kg/injection, schedule: Q04DX003 (ip), vehicle: other) is 95 % of control.
As for `COc1cc([N+](=O)[O-])c(Cl)cc1NS(=O)(=O)c1ccc(C)cc1`, the T/C is, setting by setting: under setting [8], 98 % of control; (dose: 200.0 mg/kg/injection, schedule: Q01DX001 (ip), vehicle: Klucel (hydroxypropylcellulose) (HPC)) 95 % of control; (dose: 400.0 mg/kg/injection, schedule: Q01DX001 (ip), vehicle: Klucel (hydroxypropylcellulose) (HPC)) 90 % of control.
For the compound `CCC(Br)C(Br)CC(Br)C(Br)CC(Br)C(Br)CCCCCCCC(=O)O` (centres undefined), the T/C is 96 % of control under setting [1]; 98 % of control under setting [2]; 88 % of control (dose: 200.0 mg/kg/injection, schedule: Q01DX009 (ip), vehicle: Klucel (hydroxypropylcellulose) (HPC)); 89 % of control under setting [3]; 88 % of control (dose: 400.0 mg/kg/injection, schedule: Q01DX009 (ip), vehicle: Klucel (hydroxypropylcellulose) (HPC)); 92 % of control under setting [7].
